Measured values: US12083092B2, “Antiviral 1,3-di-oxo-indene compounds” (Novartis AG, priority 2020, dated 2024)

How the values were obtained:
[1] = tested on: coxsackievirus B4 (Cox B4); test: CPE inhibition assay, coxsackievirus B4; format: cell-based; conditions: Enterovirus B
[2] = Cytotoxicity in mock-infected cells (MTT/MTS); format: cell-based; conditions: human, read-out: CYTOTOX (EC50 μM)
Protocol: In the assay, HeLa (human cervical cancer cells), MRC-5 (human fetal lung fibroblast cells), and RD cells (derived from human rhabdomyosarcoma) were employed. For comparison, ribavirin (Riv), Pleconaril (pleco), and BTA-798 (BTA) were used as controls. Reagents were dissolved at a concentration of 10-40 mg/ml in 100% dimethyl sulfoxide (DMSO). Water-soluble reagents were dissolved in PBS (−) solution and stored at −20° C. On the day of the experiment, they were used in 3 fold to 5 fold concentrations in such a manner that the concentration of dimethyl sulfoxide in each well was between 0.5% and 1%.
For HeLa cells, the drugs were measured for EC50 (50% maximal effective concentration), which is the concentration of a drug inducing a response halfway between the baseline and maximum, using an MTT assay. With regard to RD and MRC-5 cells, CPE was determined using FDA (Fluorescein diacetate) or MTT. In order to determine the effect of drug toxicity on efficacy results, at the time of inoculation with the virus, mock-infection was also included. A virus-free medium was added to a cell culture, which was then subjected to the same treatment as the virus-infected cells inoculated with the virus. That is, the medium was removed after one hour of incubation, and dilutions of drugs in the medium were added once more. Following incubation for 2-3 days, the cells were observed under a microscope and the drugs were determined for CC50 (50% cytotoxic concentration) at which 50% of the cells were killed, using an MTT assay in which counts of viable cells in mock-infected wells containing drugs were compared to those of viable cells in control wells containing no drugs. In an FDA hydrolysis assay, FDA was added to each well after removal of the medium, and incubated for 20-30 min before fluorescence intensity was measured using a spectrofluorometer to determine CPE in the same manner as in MTT.
That is, the survival rate (% survival) of mock-infected cells for cytotoxicity measurement was calculated using the Mathematical Formula 1 below: Cell Drug=Survival by [A (Drug)−A (Background solution)/A (Cell control)−(Background×100% Solution)]
While 100% cell survival means no cytotoxicity of the drug, the highest cytotoxicity is reflected by 0% cell survival. The 50% cytotoxic concentration was defined as the concentration required to reduce the cell number by 50%. This concentration of the drug is represented as CC50. Higher values mean lower cytotoxicity.
The % CPE value for measuring cytotoxicity of a drug was calculated by Mathematical Formula 4 below: % CPE=100×[OD (CC)−OD (Virus+Compound)/OD (CC)−OD (Blank)] In Mathematical Formulae 3 and 4 above, • OD (CC) represents the OD of the background cell culture that is neither induced by a virus nor treated by chemical, • OD (VC) represents the OD of the control cell culture that is induced by a virus but not treated by chemical, • OD (Virus+Compound) represents the OD of the cell culture infected by a virus that has been treated with a concentrated compound, • OD (Compound) represents the OD of the cell culture that has been treated with a concentrated compound only, and OD (Blank) represents the OD of the well to which only the cell culture has been added.
The effective concentration (EC50) represents the concentration of a drug at which 50% of cells are allowed to survive by CPE of an induced virus, and the cytotoxicity concentration (CC50) represents the concentration of a drug at which a compound has killed 50% of cells, and they were calculated by the logarithmic interpolation.

[3] = C15_C3 REP; conditions: human, C15 C3 REP (cell-based assay)
[4] = tested on: HRV A16; test: CPE inhibition assay, HRV A16; format: cell-based; conditions: Human rhinovirus sp., read-out: A16_CPE (EC50 μM)
[5] = tested on: HRV B14; test: CPE inhibition assay, HRV B14; format: cell-based; conditions: Human rhinovirus sp.
[6] = in vivo, cited from earlier work
[7] = tested on: poliovirus 1 (PV1); test: microbe, parasite or virus in culture; format: cell-based; conditions: Enterovirus C, read-out: PV1 (EC50 μM)
[8] = cited from earlier work
[9] = in vivo; cited from earlier work
[10] = in vivo; cited from earlier work; remark: listed apart in the source
[11] = tested on: 48 rhinovirus types and coxsackievirus A21. B3, enterovirus 70 and echovirus 11; conditions: coxsackievirus A21, B3, enterovirus 70, echovirus 11; cited from earlier work

Structure (SMILES)	EC50 [1] [µM]	CC50 [2] [µM]	CC50 [3] [nM]	EC50 [4] [µM]	EC50 [5] [µM]	EC50 [7] [µM]	other results
CC(=O)N[C@@]12C(=O)c3c(N)cccc3[C@]1(O)Oc1cc(C)ccc12 (single isomer, unassigned) [Example 18]	0.383	≥ 50	25000				
CC(=O)NC12C(=O)c3c(N)cccc3C1(O)Oc1cc(C(F)(F)F)ccc12 (racemic) [Example 3, N-(1-amino-4b-hydroxy-10-oxo-7-(trifluoromethyl)-4b,10-dihydro-9bH-indeno[1,2-b]benzofuran-9b-yl)acetamide]	0.00201	≥ 50	21400	50	0.019		
CC(=O)N(C)C12C(=O)c3c(N)cccc3C1(O)Oc1cc(C(F)(F)F)ccc12 (stereo not shown) [Example 21, N-(1-amino-4b-hydroxy-10-oxo-7-(trifluoromethyl)-4b,10-dihydro-9bH-indeno[1,2-b]benzofuran-9b-yl)-N-methylacetamide]	0.0032	≥ 50	25000				
Cc1cc(CCCOc2c(C)cc(-c3noc(C(F)(F)F)n3)cc2C)on1 [Pleconaril]							oral bioavailability ([6]; po): very good oral bioavailability
COc1ccc2c(c1)O[C@]1(O)c3cccc(N)c3C(=O)[C@]21NC(C)=O (single isomer, unassigned) [Example 23]	0.00293	≥ 50					
CC(=O)N[C@]12C(=O)c3c(N)cccc3[C@@]1(O)Oc1cc(C3CC3)ccc12 (single isomer, unassigned) [Example 8]	0.00093	≥ 50	50000	7.85	0.025	0.028	
CC(=O)N[C@@]12C(=O)c3c(N)cccc3[C@]1(O)Oc1cc(OC(F)(F)F)ccc12 (single isomer, unassigned) [Example 12]	0.188	≥ 50		1.89	0.016	0.015	
CC(=O)NC12C(=O)c3c(N)cccc3C1(O)Oc1cc(C)ccc12 (racemic) [Example 16, N-(1-amino-4b-hydroxy-7-methyl-10-oxo-4b,10-dihydro-9bH-indeno[1,2-b]benzofuran-9b-yl)acetamide]	0.00374	≥ 50		50	0.076		
CC(=O)N[C@]12C(=O)c3c(N)cccc3[C@@]1(O)Oc1ccc(C)cc12 (single isomer, unassigned) [Example 20]	0.00443	≥ 50				2.17	
CC(=O)N[C@]12C(=O)c3c(N)cccc3[C@@]1(O)Oc1cc(Cl)ccc12 (single isomer, unassigned) [Example 14]	0.00182	≥ 50					
CCC(=O)C(CCCCCCOc1ccc(OC)cc1Cl)C(=O)CC [arildone]							bioavailability [6]: low bioavailability
CC(=O)N[C@@]12C(=O)c3c(N)cccc3[C@]1(O)Oc1cc(C3CC3)ccc12 (single isomer, unassigned) [Example 9]	0.0862	≥ 50	50000	50	3.21		
CC(=O)N[C@]12C(=O)c3c(N)cccc3[C@@]1(O)Oc1cc(C(F)(F)F)ccc12 (single isomer, unassigned) [Example 4]	0.00059	≥ 50				0.041	
CC(=O)N[C@]12C(=O)c3c(N)cccc3[C@@]1(O)Oc1cc(C(C)C)ccc12 (single isomer, unassigned) [Example 1]	0.00061	≥ 50	35100	1.89	0.016	0.015	
CC(C)S(=O)(=O)n1c(N)nc2ccc(/C(=N/O)c3ccccc3)cc21 [Enviroxime]							therapeutic effects in clinical studies ([8]; clinical studies): insignificant or few therapeutic effects; pharmacokinetics in clinical studies ([8]; in vivo): bad pharmacokinetics; side effects in clinical studies ([8]; in vivo): unwanted side effects
CC(=O)NC12C(=O)c3c(N)cccc3C1(O)Oc1cc(C3CC3)ccc12 (racemic) [Example 7, N-(1-amino-7-cyclopropyl-4b-hydroxy-10-oxo-4b,10-dihydro-9bH-indeno[1,2-b]benzofuran-9b-yl)acetamide]	0.00168	≥ 50	50000	14.7	0.016		
CC(=O)N[C@]12C(=O)c3c(N)cccc3[C@@]1(O)Oc1cc(Br)ccc12 [Example 6, N-((4bR,9bR)-1-amino-7-bromo-4b-hydroxy-10-oxo-4b,10-dihydro-9bH-indeno[1,2-b]benzofuran-9b-yl)acetamide]	0.00098	≥ 50	50000	43.3	0.049		
CC(=O)N[C@@]12C(=O)c3c(N)cccc3[C@]1(O)Oc1cc(Cl)ccc12 (single isomer, unassigned) [Example 15]	0.29	≥ 50	25000				
CC(=O)N[C@@]12C(=O)c3c(N)cccc3[C@]1(O)Oc1cc(C(F)(F)F)ccc12 (single isomer, unassigned) [Example 5]	0.0442	≥ 50	25000			9.22	
CC(=O)NC12C(=O)c3c(N)cccc3C1(O)Oc1ccc(C)cc12 (racemic) [Example 19, N-(1-amino-4b-hydroxy-8-methyl-10-oxo-4b,10-dihydro-9bH-indeno[1,2-b]benzofuran-9b-yl)acetamide]	0.00871	≥ 50	25000	50	0.666	3.24	
CC(=O)NC12C(=O)c3c(N)cccc3C1(O)Oc1cc(Cl)ccc12 (racemic) [Example 13, N-(1-amino-7-chloro-4b-hydroxy-10-oxo-4b,10-dihydro-9bH-indeno[1,2-b]benzofuran-9b-yl)acetamide]	0.00267	≥ 50				0.295	
CC(=O)NC12C(=O)c3c(N)cccc3C1(O)Oc1cc(OC(F)(F)F)ccc12 (racemic) [Example 10, N-(1-amino-4b-hydroxy-10-oxo-7-(trifluoromethoxy)-4b,10-dihydro-9bH-indeno[1,2-b]benzofuran-9b-yl)acetamide]	0.00303	≥ 50	50000	39.8	0.056	0.335	
CC(=O)N[C@]12C(=O)c3c(N)cccc3[C@@]1(O)Oc1cc(OC(F)(F)F)ccc12 (single isomer, unassigned) [Example 11]	0.0011	≥ 50					
Cc1cc(CCCCCOc2c(Cl)cc(C3=NCCO3)cc2Cl)on1 [WIN 54954]							metabolization and excretion [9]: rapid metabolization and excretion; side effects [10]: skin rash
CCOC(=O)/C=C/[C@H](C[C@@H]1CCNC1=O)NC(=O)[C@@H](CC(=O)[C@@H](NC(=O)c1cc(C)on1)C(C)C)Cc1ccc(F)cc1 [AG 7088]							effect in the cell culture [11]: nanomolar concentration range
CC(=O)N[C@]12C(=O)c3c(N)cccc3[C@@]1(O)Oc1cc(C)ccc12 (single isomer, unassigned) [Example 17]	0.00174	≥ 50				0.11	
Cc1cc(CCCCCCCOc2ccc(C3=NCCO3)cc2)on1 [disoxaril]							bioavailability [6]: low bioavailability; metabolization and excretion [9]: rapid metabolization and excretion
